pIC50: −log10 of the molar value.
Assays:
DG-75 = assay: cells; type: functional, cell-based, Homo sapiens; settings: Homo sapiens, DG-75;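 also: growth inhibition of DG-75 cells, read out with a cell viability assay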
Description: SANGER: Inhibition of human DG-75 cell growth in a cell viability assay.

DMS-153 = assay: cells; type: functional, cell-based, Homo sapiens; settings: Homo sapiens, DMS-153
Description: SANGER: Inhibition of human DMS-153 cell growth in a cell viability assay.

DMS-273 = assay: cells; type: functional, cell-based; settings: Homo sapiens
Description: SANGER: Inhibition of human DMS-273 cell growth in a cell viability assay.

DOK = assay: cells; type: functional, cell-based; settings: Homo sapiens;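 also: cell viability assay read-out, values reflect inhibition of cell growth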
Description: SANGER: Inhibition of human DOK cell growth in a cell viability assay.

DoTc2-4510 = assay: cells; type: functional, cell-based; settings: Homo sapiens
EC-GI-10 = assay: cells; type: functional, cell-based, Homo sapiens; settings: Homo sapiens, EC-GI-10
Description: SANGER: Inhibition of human EC-GI-10 cell growth in a cell viability assay.

EFO-27 = assay: cells; type: functional, cell-based; settings: Homo sapiens;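 also: growth inhibition of EFO-27 cells, read out with a cell viability assay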
Description: SANGER: Inhibition of human EFO-27 cell growth in a cell viability assay.

EVSA-T = assay: cells; type: functional, cell-based, Homo sapiens; settings: Homo sapiens, EVSA-T;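 also: growth inhibition of EVSA-T cells, read out with a cell viability assay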
Description: SANGER: Inhibition of human EVSA-T cell growth in a cell viability assay.

G-361 = assay: cells; type: functional, cell-based; settings: Homo sapiens
G-402 = assay: cells; type: functional, cell-based; settings: Homo sapiens
Description: SANGER: Inhibition of human G-402 cell growth in a cell viability assay.

HCC1419 = assay: cells; type: functional, cell-based; settings: Homo sapiens;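 also: growth inhibition of human HCC1419 cells, read out as cell viability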
Description: SANGER: Inhibition of human HCC1419 cell growth in a cell viability assay.

HCC38 = assay: cells; type: functional, cell-based; settings: Homo sapiens;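 also: cell viability assay on the human HCC38 cell line, with IC50 marking the concentration that inhibits cell growth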
Description: SANGER: Inhibition of human HCC38 cell growth in a cell viability assay.

HCT-116 = assay: cells; type: functional, cell-based; settings: Homo sapiens
Description: SANGER: Inhibition of human HCT-116 cell growth in a cell viability assay.

HOS = assay: cells; type: functional, cell-based; settings: Homo sapiens;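 also: growth inhibition of human HOS cells, read out with a cell viability assay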
Description: SANGER: Inhibition of human HOS cell growth in a cell viability assay.

HT-1376 = assay: cells; type: functional, cell-based; settings: Homo sapiens
Description: SANGER: Inhibition of human HT-1376 cell growth in a cell viability assay.

HuO-3N1 = assay: cells; type: functional, cell-based; settings: Homo sapiens;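 also: cell viability readout used to measure how strongly compounds suppress proliferation of human HuO-3N1 cells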
Description: SANGER: Inhibition of human HuO-3N1 cell growth in a cell viability assay.

IGROV-1 = assay: cells; type: functional, cell-based; settings: Homo sapiens;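 also: reduction of IGROV-1 cell growth, read out with a viability assay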
Description: SANGER: Inhibition of human IGROV-1 cell growth in a cell viability assay.

JIYOYE = assay: cells; type: functional, cell-based, Homo sapiens; settings: Homo sapiens, JIYOYE
Description: SANGER: Inhibition of human JiyoyeP-2003 cell growth in a cell viability assay.

LB373-MEL-D = assay: cells; type: functional, cell-based, Homo sapiens; settings: Homo sapiens, LB373-MEL-D;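 also: growth inhibition of the cell line, read out in a cell viability assay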
Description: SANGER: Inhibition of human LB373-MEL-D cell growth in a cell viability assay.

MC-IXC = assay: cells; type: functional, cell-based; settings: Homo sapiens;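 also: growth inhibition of MC-IXC cells, read out with a cell viability assay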
Description: SANGER: Inhibition of human MC-IXC cell growth in a cell viability assay.

MDA-MB-453 = assay: cells; type: functional, cell-based; settings: Homo sapiens
Description: SANGER: Inhibition of human MDA-MB-453 cell growth in a cell viability assay.

MKN-7 = assay: cells; type: functional, cell-based; settings: Homo sapiens;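 also: growth inhibition of MKN-7 cells, read out with a cell viability assay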
Description: SANGER: Inhibition of human MKN7 cell growth in a cell viability assay.

NB1 = assay: cells; type: functional, cell-based, Homo sapiens; settings: Homo sapiens, NB1;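 also: reduction of NB1 cell proliferation, read out with a viability assay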
Description: SANGER: Inhibition of human NB1 cell growth in a cell viability assay.

NCI-H1522 = assay: cells; type: functional, cell-based, Homo sapiens; settings: Homo sapiens, NCI-H1522;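 also: growth inhibition of NCI-H1522 cells, read out with a cell viability assay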
Description: SANGER: Inhibition of human NCI-H1522 cell growth in a cell viability assay.

NCI-H2052 = assay: cells; type: functional, cell-based; settings: Homo sapiens;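 also: growth inhibition of NCI-H2052 cells, read out with a cell viability assay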
Description: SANGER: Inhibition of human NCI-H2052 cell growth in a cell viability assay.

NCI-H2171 = assay: cells; type: functional, cell-based, Homo sapiens; settings: Homo sapiens, NCI-H2171;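 also: growth inhibition of human NCI-H2171 cells, read out by a cell viability assay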
Description: SANGER: Inhibition of human NCI-H2171 cell growth in a cell viability assay.

NCI-H2405 = assay: cells; type: functional, cell-based; settings: Homo sapiens;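 also: growth inhibition of the human cell line, read out with a cell viability assay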
Description: SANGER: Inhibition of human NCI-H2405 cell growth in a cell viability assay.

NCI-H2452 = assay: cells; type: functional, cell-based; settings: Homo sapiens;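 also: growth inhibition of NCI-H2452 cells, read out with a cell viability assay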
Description: SANGER: Inhibition of human NCI-H2452 cell growth in a cell viability assay.

NCI-H28 = assay: cells; type: functional, cell-based; settings: Homo sapiens;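 also: growth inhibition of human NCI-H28 cells, read out as cell viability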
Description: SANGER: Inhibition of human NCI-H28 cell growth in a cell viability assay.

NCI-H441 = assay: cells; type: functional, cell-based; settings: Homo sapiens;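 also: growth inhibition of NCI-H441 cells, read out with a cell viability assay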
Description: SANGER: Inhibition of human NCI-H441 cell growth in a cell viability assay.

NCI-H510A = assay: cells; type: functional, cell-based, Homo sapiens; settings: Homo sapiens, NCI-H510A;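 also: growth inhibition of NCI-H510A cells, read out with a cell viability assay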
Description: SANGER: Inhibition of human NCI-H510A cell growth in a cell viability assay.

NCI-H596 = assay: cells; type: functional, cell-based; settings: Homo sapiens;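 also: growth inhibition of NCI-H596 cells, read out with a cell viability assay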
Description: SANGER: Inhibition of human NCI-H596 cell growth in a cell viability assay.

NCI-H630 = assay: cells; type: functional, cell-based; settings: Homo sapiens;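 also: growth inhibition of NCI-H630 cells, read out with a cell viability assay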
Description: SANGER: Inhibition of human NCI-H630 cell growth in a cell viability assay.

NCI-H719 = assay: cells; type: functional, cell-based, Homo sapiens; settings: Homo sapiens, NCI-H719;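 also: growth inhibition of the cultured cell line, read out with a viability assay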
Description: SANGER: Inhibition of human NCI-H719 cell growth in a cell viability assay.

OAW-28 = assay: cells; type: functional, cell-based; settings: Homo sapiens;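 also: growth inhibition of OAW-28 cells, read out with a cell viability assay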
Description: SANGER: Inhibition of human OAW-28 cell growth in a cell viability assay.

OAW-42 = assay: cells; type: functional, cell-based; settings: Homo sapiens;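 also: growth inhibition of OAW-42 cells, read out with a cell viability assay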
Description: SANGER: Inhibition of human OAW-42 cell growth in a cell viability assay.

REH = assay: cells; type: functional, cell-based, Homo sapiens; settings: Homo sapiens, REH;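 also: growth inhibition of REH cells determined with a cell viability read-out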
Description: SANGER: Inhibition of human REH cell growth in a cell viability assay.

RPMI-6666 = assay: cells; type: functional, cell-based, Homo sapiens; settings: Homo sapiens, RPMI-6666
Description: SANGER: Inhibition of human RPMI-6666 cell growth in a cell viability assay.

RPMI-7951 = assay: cells; type: functional, cell-based; settings: Homo sapiens
Description: SANGER: Inhibition of human RPMI-7951 cell growth in a cell viability assay.

RPMI 8402 = assay: SANGER: Inhibition of human RPMI-8402 cell growth in a cell viability assay.; type: functional, cell-based; settings: Homo sapiens, RPMI 8402
SCC-9 = assay: cells; type: functional, cell-based; settings: Homo sapiens;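 also: Read-out is a cell viability assay, with values giving inhibition of cell growth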
Description: SANGER: Inhibition of human SCC-9 cell growth in a cell viability assay.

SK-OV-3 = assay: cells; type: functional, cell-based; settings: Homo sapiens;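 also: growth inhibition of SK-OV-3 human cells, read out with a cell viability assay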
Description: SANGER: Inhibition of human SK-OV-3 cell growth in a cell viability assay.

SN12C = assay: cells; type: functional, cell-based; settings: Homo sapiens;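 also: growth inhibition of human SN12C cells, measured by a cell viability assay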
Description: SANGER: Inhibition of human SN12C cell growth in a cell viability assay.

SR = assay: cells; type: functional, cell-based, Homo sapiens; settings: Homo sapiens, SR
Description: SANGER: Inhibition of human SR cell growth in a cell viability assay.

SU-DHL-1 = assay: SANGER: Inhibition of human SU-DHL-1 cell growth in a cell viability assay.; type: functional, cell-based; settings: Homo sapiens, SU-DHL-1
SUP-T1 = assay: cells; type: functional, cell-based, Homo sapiens; settings: Homo sapiens, SUP-T1;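 also: growth inhibition of human SUP-T1 cells, read out as cell viability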
Description: SANGER: Inhibition of human SUP-T1 cell growth in a cell viability assay.

SW1463 = assay: cells; type: functional, cell-based; settings: Homo sapiens;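 also: growth inhibition of SW1463 cells, determined with a cell viability assay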
Description: SANGER: Inhibition of human SW1463 cell growth in a cell viability assay.

SiHa = assay: cells; type: functional, cell-based; settings: Homo sapiens;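 also: Viability-based readout of growth inhibition in SiHa cells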
Description: SANGER: Inhibition of human SiHa cell growth in a cell viability assay.

TALL-1 = assay: cells; type: functional, cell-based, Homo sapiens; settings: Homo sapiens, TALL-1;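 also: growth inhibition of cultured human TALL-1 cells, read out by a cell viability assay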
Description: SANGER: Inhibition of human TALL-1 cell growth in a cell viability assay.

A204 = assay: cells; type: functional, cell-based; settings: Homo sapiens;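 also: growth inhibition of human A204 cells, read out with a cell viability assay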
Description: SANGER: Inhibition of human A204 cell growth in a cell viability assay.

AU565 = assay: cells; type: functional, cell-based; settings: Homo sapiens;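 also: cell viability assay measuring growth inhibition of human AU565 cells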
Description: SANGER: Inhibition of human AU565 cell growth in a cell viability assay.

BCPAP = assay: cells; type: functional, cell-based; settings: Homo sapiens;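 also: growth inhibition of BCPAP cells, read out in a cell viability assay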
Description: SANGER: Inhibition of human BCPAP cell growth in a cell viability assay.

BHY = assay: cells; type: functional, cell-based; settings: Homo sapiens;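 also: cell growth inhibition read out by a viability assay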
Description: SANGER: Inhibition of human BHY cell growth in a cell viability assay.

BT-20 = assay: cells; type: functional, cell-based; settings: Homo sapiens;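 also: cell viability assay measuring suppression of growth in human BT-20 cells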
Description: SANGER: Inhibition of human BT-20 cell growth in a cell viability assay.

C-33-A = assay: cells; type: functional, cell-based; settings: Homo sapiens;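 also: cell viability assay measuring growth inhibition of C-33-A cells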
Description: SANGER: Inhibition of human C-33-A cell growth in a cell viability assay.

C32 = assay: cells; type: functional, cell-based; settings: Homo sapiens;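 also: cell viability assay, with IC50 reflecting inhibition of C32 cell growth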
Description: SANGER: Inhibition of human C32 cell growth in a cell viability assay.

CAL-39 = assay: cells; type: functional, cell-based; settings: Homo sapiens;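 also: cell viability assay measuring growth inhibition of CAL-39 cells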
Description: SANGER: Inhibition of human CAL-39 cell growth in a cell viability assay.

UMC-11 = assay: cells; type: functional, cell-based; settings: Homo sapiens;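 also: growth inhibition of UMC-11 cells, read out with a cell viability assay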
Description: SANGER: Inhibition of human UMC-11 cell growth in a cell viability assay.

Measured: pIC50

O=S(=O)(O)c1ccc2cc(/N=N/c3cc(S(=O)(=O)O)c4cccnc4c3O)ccc2c1
< 4.80: all assays above
